These are literature values, as cited in patent US20260240991A1, “METHODS OF HEMATOPOIETIC PRECURSOR CELLS MOBILIZATION” (BioLineRx Ltd., priority 2023, published 2026).

Where two headings read alike, the source gives them in different places. Bridges are numbered along the chain shown (N, C = ends). [ ]: non-standard residue; d: D form. The star is where a group is joined. 2Nal = N[C@@H](Cc1ccc2ccccc2c1)C(=O)O; Benzoyl(4-F) = O=C(c1ccc(F)cc1)*; Cit = NC(=O)NCCC[C@H](N)C(=O)O

For one data set, the system named is CD34+ cells. To be noted: patients with MS.
Another data set concerns PB progenitor cells. The note with it: mice.

With “Natalizumab: recombinant humanized monoclonal antibody against d4 subunit of VLA-4”, the “maximal concentration of circulating CD34+ cells” value in the data set on circulating CD34+ cells (MS patients, 72 hours following administration) was 10.4 CD34+ cells/μL. Besides, the “persistence of elevation in PB CD34+ cells following administration” value in the data set with circulating CD34+ cells (Zohren and Bonig) is given as “at least 1 month”. Further, in the data set on CD34+ cells, the “increase in PB CD34+ cells” value was 7 fold and the “time of maximum absolute CD34+ count following treatment” value was 4 days. For the same substance, the “increase in BM CD34+ cells” value in the data set with CD34+ cells (dose-dependent) is reported as 7 fold.
Regarding “4F-benzoyl-Arg-Arg-Nal-Cys-Tyr-Cit-Lys-DLys-Pro-Tyr-Arg-Cit-Cys-Arg-NH2 ({Benzoyl(4-F)}-RR[2Nal]CY[Cit]K[dK]PYR[Cit]CR-NH2; disulfide 4-13 (inferred)) [Motixafortide]”, in the data set on PB progenitor cells (agent alone), the “increase in PB progenitor cells” value was at most 10 fold and the “time of peak of PB progenitor cell increase following administration of the dose” value was 1 to 2 h. In the data set with PB progenitor cells (combined with G-CSF), the “PB progenitor cell increase compared with Plerixafor and G-CSF” value is “higher than seen with a combination of Plerixafor and G-CSF”; the “increase in PB progenitor cells over controls” value was 78 fold. Also, in the data set on PB CD34+ cells (human, in vivo), the tolerability result is “well-tolerated”. For the same substance, the “number of apheresis sessions required” value in the data set on PB CD34+ cells (myeloma patients, 900 μg/kg) is on record as 1. Besides, the “effect on mean absolute PB CD34+ cells” value with PB CD34+ cells (myeloma patients, dose escalation) is reported as “dose-dependent increase”. The “mean PB CD34+ count” value with PB CD34+ cells (myeloma patients, highest dose tested 900 μg/kg) was 2.06e+07 kg⁻¹. Further, in the data set on PB CD34+ cells (myeloma patients, lower doses), the “number of apheresis sessions required” value is reported as 2.25.
